A short description of this data set: recombinant UMI read abundance after kanamycin selection (control-corrected) (log10(CPM+1)); higher = more efficient recombination; extreme values may be limits of the assay; sequences stand for … in AGTGCAGAGAAAATCGGCCAGTTTTCTCTGCCTGCAGTCCGCATGCCGTGGGACCCCTTGGGTTCTAACCTGTTGCCTAGATTTATGCAGCGGACTGCCTTTCTCCCAAAGTGATAAACCGG…AGGTTGGTTTCACT; site = the 11-nt donor. The protocol:
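Pooled E. coli donor-specificity screen for the IS621 bridge recombinase. Each library member carries a reprogrammed 11-nt donor and a full-length LE bridge RNA expressed in cis from the natural promoter, with a paired donor-binding loop (8-nt LDG + 4-nt RDG) and a target-binding loop fixed to T5. It is co-electroporated with a T5 target plasmid; recombinase is induced with 0.07 mM IPTG and recombinants are selected on kanamycin. UMIs are counted as CPM, averaged over two biological replicates and corrected by the unselected control. Molecule = full bridge RNA written as DNA, built from the T5 scaffold: LDG = donor specificity nt 1-8, RDG = reverse complement of nt 8-11.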
For the sequence “ACTGGAGCATGGACCGGTTTTCCCGGTAATCCGTATTTGCT (site ACTGGAGCTAG)”, the “recombinant UMI read abundance (log10)” value came out at 1.86. As for “ACTGGATCATGGACCGGTTTTCCCGGTAATCCGTATTTGAG (site ACTGGATCTCT)”, the figure is 2.41. On to “ACTGGATCATGGACCGGTTTTCCCGGTAATCCGTATTTGCA (site ACAGTATCTTG)”, for which the “recombinant UMI read abundance (log10)” value came to 0.973. As to “ACTGGATCATGGACCGGTTTTCCCGGTAATCCGTATTTGCA (site ACTGGATCTTG)”, the “recombinant UMI read abundance (log10)” value was determined as 1.64. The same measure for “ACTGGGACATGGACCGGTTTTCCCGGTAATCCGTATTTGAG (site ACTGGGACTCT)”: 1.39; for “ACTGGTACATGGACCGGTTTTCCCGGTAATCCGTATTTGAA (site ACTGGTACTTT)”: 1.1; for “ACTGTATCATGGACCGGTTTTCCCGGTAATCCGTATTTGAA (site ACAGTATCTTG)”: 0. The same measure for “ACTGTATCATGGACCGGTTTTCCCGGTAATCCGTATTTGAA (site ACTGTATCTTT)”: 1.99; for “ACTGTATCATGGACCGGTTTTCCCGGTAATCCGTATTTGCA (site ACAGTATCTTG)”: 1.82.

Regarding “ACTGTATCATGGACCGGTTTTCCCGGTAATCCGTATTTGCA (site ACCGTATCTTG)”, the “recombinant UMI read abundance (log10)” value amounted to 1.91. As to “ACTGTATCATGGACCGGTTTTCCCGGTAATCCGTATTTGCA (site ACGGTATCTTG)”, the “recombinant UMI read abundance (log10)” value was found to be 1.96.

With “ACTGTATCATGGACCGGTTTTCCCGGTAATCCGTATTTGCA (site ACTGTATCTTG)”, the “recombinant UMI read abundance (log10)” value amounted to 2.57. The same measure for “ACTTAGACATGGACCGGTTTTCCCGGTAATCCGTATTTGGT (site ACTTAGACTAC)”: 1.15. Regarding “ACTTGATCATGGACCGGTTTTCCCGGTAATCCGTATTTGCG (site ACTTGATCTCG)”, the “recombinant UMI read abundance (log10)” value is 1.57. With “ACTTTAACATGGACCGGTTTTCCCGGTAATCCGTATTTGGT (site ACTTTAACTAC)”, the “recombinant UMI read abundance (log10)” value was determined as 0.85. As for “AGAAAAACATGGACCGGTTTTCCCGGTAATCCGTATTTGCA (site AGAAAAACTTG)”, the figure is 2.23. For the sequence “AGAAAAACATGGACCGGTTTTCCCGGTAATCCGTATTTGCA (site AGGAAGACTTG)”, the “recombinant UMI read abundance (log10)” value worked out at 0.

As to “AGAAAGGCATGGACCGGTTTTCCCGGTAATCCGTATTTGCC (site AGAAAGGCTAG)”, the “recombinant UMI read abundance (log10)” value was found to be 0. Take “AGAAAGGCATGGACCGGTTTTCCCGGTAATCCGTATTTGCC (site AGAAAGGCTCG)”: the “recombinant UMI read abundance (log10)” value stood at 0.784.

Consider “AGAAAGGCATGGACCGGTTTTCCCGGTAATCCGTATTTGCC (site AGAAAGGCTGG)”, for which the “recombinant UMI read abundance (log10)” value was found to be 1.78.

“AGAAAGGCATGGACCGGTTTTCCCGGTAATCCGTATTTGCC (site AGAAAGGCTTG)”: the “recombinant UMI read abundance (log10)” value was 1.79. On to “AGAAAGGCATGGACCGGTTTTCCCGGTAATCCGTATTTGGT (site AGAAAGGCTAA)”, for which the “recombinant UMI read abundance (log10)” value was 1.65. Take “AGAAAGGCATGGACCGGTTTTCCCGGTAATCCGTATTTGGT (site AGAAAGGCTAC)”: the “recombinant UMI read abundance (log10)” value worked out at 0.881.

“AGAAAGGCATGGACCGGTTTTCCCGGTAATCCGTATTTGGT (site AGAAAGGCTAG)”: the “recombinant UMI read abundance (log10)” value turned out to be 0.34. Consider “AGAAAGGCATGGACCGGTTTTCCCGGTAATCCGTATTTGGT (site AGAAAGGCTAT)”, for which the “recombinant UMI read abundance (log10)” value amounted to 0.986. In the case of “AGAAAGGCATGGACCGGTTTTCCCGGTAATCCGTATTTGTT (site AGAAAGGCTAA)”, the “recombinant UMI read abundance (log10)” value is 1.99. As for “AGAAAGGCATGGACCGGTTTTCCCGGTAATCCGTATTTGTT (site AGAAAGGCTAC)”, the figure is 0; as for “AGAAAGGCATGGACCGGTTTTCCCGGTAATCCGTATTTGTT (site AGAAAGGCTAG)”, 1.47; as for “AGAAAGGCATGGACCGGTTTTCCCGGTAATCCGTATTTGTT (site AGAAAGGCTAT)”, 0.97. The same measure for “AGAAAGTCATGGACCGGTTTTCCCGGTAATCCGTATTTGCA (site AGAAAGTCTTG)”: 2.65; for “AGAAAGTCATGGACCGGTTTTCCCGGTAATCCGTATTTGCA (site AGGAAGACTTG)”: 0; for “AGAAATCCATGGACCGGTTTTCCCGGTAATCCGTATTTGTT (site AGAAATCCTAA)”: 0.589. The same measure for “AGAAATCCATGGACCGGTTTTCCCGGTAATCCGTATTTGTT (site CGGAATCCTAA)”: 0.00278. As to “AGAAATGCATGGACCGGTTTTCCCGGTAATCCGTATTTGAG (site AGAAATGCTCT)”, the “recombinant UMI read abundance (log10)” value amounted to 2.88. The same measure for “AGAAATGCATGGACCGGTTTTCCCGGTAATCCGTATTTGCC (site AGAAATGCTGG)”: 1.67; for “AGAATGCCATGGACCGGTTTTCCCGGTAATCCGTATTTGAC (site AGAATGCCTGT)”: 0; for “AGACACCCATGGACCGGTTTTCCCGGTAATCCGTATTTGCA (site AGACACCCTTG)”: 1.15. With “AGACGAGCATGGACCGGTTTTCCCGGTAATCCGTATTTGCG (site AGACGAGCTCG)”, the “recombinant UMI read abundance (log10)” value was 2.67. In the case of “AGACTTGCATGGACCGGTTTTCCCGGTAATCCGTATTTGTA (site AGACTTGCTTA)”, the “recombinant UMI read abundance (log10)” value was 0.887. The same measure for “AGAGCGACATGGACCGGTTTTCCCGGTAATCCGTATTTGTG (site AGAGCGACTCA)”: 1.49; for “AGAGGGTCATGGACCGGTTTTCCCGGTAATCCGTATTTGGT (site AGAGGGTCTAC)”: 2.54. As for “AGAGGTCCATGGACCGGTTTTCCCGGTAATCCGTATTTGTG (site AGAGGTCCTCA)”, the figure is 0.00302; as for “AGAGTACCATGGACCGGTTTTCCCGGTAATCCGTATTTGCA (site ACAGTATCTTG)”, 1.61; as for “AGAGTACCATGGACCGGTTTTCCCGGTAATCCGTATTTGCA (site AGAGTACCTTG)”, 0. As to “AGAGTTACATGGACCGGTTTTCCCGGTAATCCGTATTTGGC (site AGAGTTACTGC)”, the “recombinant UMI read abundance (log10)” value was determined as 2.43. On to “AGATATACATGGACCGGTTTTCCCGGTAATCCGTATTTGTT (site AGATATACTAA)”, for which the “recombinant UMI read abundance (log10)” value was determined as 1.74.

Regarding “AGATCATCATGGACCGGTTTTCCCGGTAATCCGTATTTGCA (site AGATCATCTTG)”, the “recombinant UMI read abundance (log10)” value worked out at 2.25. As for “AGATCATCATGGACCGGTTTTCCCGGTAATCCGTATTTGCA (site CGATCATCTAG)”, the figure is 0; as for “AGATCTACATGGACCGGTTTTCCCGGTAATCCGTATTTGTG (site AAATCTACTCA)”, 0.223. As to “AGATCTACATGGACCGGTTTTCCCGGTAATCCGTATTTGTG (site ACATCTACTCA)”, the “recombinant UMI read abundance (log10)” value stood at 0.0151.

In the case of “AGATCTACATGGACCGGTTTTCCCGGTAATCCGTATTTGTG (site AGATCTACTCA)”, the “recombinant UMI read abundance (log10)” value worked out at 0.215. Turning to “AGATCTACATGGACCGGTTTTCCCGGTAATCCGTATTTGTG (site ATATCTACTCA)”, the “recombinant UMI read abundance (log10)” value is 0.00795. For “AGATCTTCATGGACCGGTTTTCCCGGTAATCCGTATTTGCT (site AGATCTTCTAG)”, the “recombinant UMI read abundance (log10)” value came to 1.45. As for “AGATCTTCATGGACCGGTTTTCCCGGTAATCCGTATTTGCT (site CGATCATCTAG)”, the figure is 0; as for “AGATGTACATGGACCGGTTTTCCCGGTAATCCGTATTTGAC (site AGATGTACTGT)”, 1.96; as for “AGATTCCCATGGACCGGTTTTCCCGGTAATCCGTATTTGTG (site AGATTCCCTCA)”, 0.348.

Take “AGATTCCCATGGACCGGTTTTCCCGGTAATCCGTATTTGTG (site AGCTTCCCTCA)”: the “recombinant UMI read abundance (log10)” value was 0.0129. The same measure for “AGATTCCCATGGACCGGTTTTCCCGGTAATCCGTATTTGTG (site AGGTTCCCTCA)”: 0.0134; for “AGATTCCCATGGACCGGTTTTCCCGGTAATCCGTATTTGTG (site AGTTTCCCTCA)”: 0.0189. The same measure for “AGCAAGACATGGACCGGTTTTCCCGGTAATCCGTATTTGCA (site AGAAAGACTTG)”: 1.86; for “AGCAAGACATGGACCGGTTTTCCCGGTAATCCGTATTTGCA (site AGCAAGACTTG)”: 2.01; for “AGCAAGACATGGACCGGTTTTCCCGGTAATCCGTATTTGCA (site AGGAAGACTTG)”: 0.969. As to “AGCAAGACATGGACCGGTTTTCCCGGTAATCCGTATTTGCA (site AGTAAGACTTG)”, the “recombinant UMI read abundance (log10)” value came to 0.542.

For the sequence “AGCACATCATGGACCGGTTTTCCCGGTAATCCGTATTTGGG (site AGCACATCTCC)”, the “recombinant UMI read abundance (log10)” value is 0.0655.

With “AGCACCACATGGACCGGTTTTCCCGGTAATCCGTATTTGCA (site AGCACCACTTG)”, the “recombinant UMI read abundance (log10)” value was found to be 2.15.

The values are drawn from the supplement of paper PMC11208160.
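Further: IS621 bridge recombinase in Escherichia coli cells against a fixed T5 target plasmid.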
